Experiment [1] has as its target T1, Melanocyte-stimulating hormone receptor (Mus musculus, UniProt Q01727). Kind of experiment: Displacement of [125I]NDP-MSH from MC1 receptor in mouse B16 cells. In kind it is cell-based. A general note: In a radioligand displacement assay an active substance lowers the binding of a labelled ligand.
Experiment [2] deals with T2, Melanocortin receptor 3 (Homo sapiens, UniProt P41968). Put plainly: Displacement of [125I]NDP-MSH from human recombinant MC3 receptor expressed in Sf9 cells.
For experiment [3], the target named is T3, Melanocortin receptor 4 (Homo sapiens, UniProt P32245). Put plainly: Displacement of [125I]NDP-MSH from human recombinant MC4 receptor expressed in Sf9 cells.
Experiment [4] deals with T4, Melanocortin receptor 5 (Homo sapiens, UniProt P33032). Put plainly: Displacement of [125I]NDP-MSH from human recombinant MC5 receptor expressed in Sf9 cells up to 1 mM.
In experiment [5] the target is T4, Melanocortin receptor 5. Put plainly: Displacement of [125I]NDP-MSH from human recombinant MC5 receptor expressed in Sf9 cells.
The nature of experiment [6]: Selectivity for mouse MC1 receptor over human MC3 receptor.
A short description of experiment [7]: Selectivity for mouse MC1 receptor over human MC4 receptor.
Experiment [8] in a line: Selectivity for mouse MC1 receptor over human MC5 receptor.
The target in experiment [9] is Melanocyte-stimulating hormone receptor (Mus musculus) (UniProt Q01727). Kind of experiment: Antagonist activity MC1 receptor in mouse B16 cells assessed as inhibition of alpha-MSH-induced cAMP accumulation at 100 uM. In kind it is functional, cell-based. Background: Changes in cAMP serve as a functional read-out for many G protein-coupled receptors.
For experiment [10], the target named is T2, Melanocortin receptor 3. Put plainly: Antagonist activity at MC3 receptor expressed in COS1 cells assessed as inhibition of alpha-MSH-induced cAMP accumulation at 100 uM. The format is functional, cell-based. The settings on record: COS-1.
In experiment [11] the target is T3, Melanocortin receptor 4. Put plainly: Antagonist activity at MC4 receptor expressed in COS1 cells assessed as inhibition of alpha-MSH-induced cAMP accumulation at 100 uM. In kind it is functional, cell-based. The settings on record: COS-1.
Experiment [12] has as its target T4, Melanocortin receptor 5. Kind of experiment: Antagonist activity at MC5 receptor expressed in COS1 cells assessed as inhibition of alpha-MSH-induced cAMP accumulation at 100 uM. The format is functional, cell-based. The settings on record: COS-1.
Experiment [13] deals with T1, Melanocyte-stimulating hormone receptor. Kind of experiment: Displacement of [125I]NDP-MSH from MC1 receptor in mouse B16 cells up to 1 mM. In kind it is cell-based.
Experiment [14] addresses T2, Melanocortin receptor 3. Kind of experiment: Displacement of [125I]NDP-MSH from human recombinant MC3 receptor expressed in Sf9 cells up to 1 mM.
Experiment [15] deals with T3, Melanocortin receptor 4. Kind of experiment: Displacement of [125I]NDP-MSH from human recombinant MC4 receptor expressed in Sf9 cells up to 1 mM.

Active and inactive are the calls of the source. No cut-off for these calls is given here.

T2 sequence (P41968 whole entry): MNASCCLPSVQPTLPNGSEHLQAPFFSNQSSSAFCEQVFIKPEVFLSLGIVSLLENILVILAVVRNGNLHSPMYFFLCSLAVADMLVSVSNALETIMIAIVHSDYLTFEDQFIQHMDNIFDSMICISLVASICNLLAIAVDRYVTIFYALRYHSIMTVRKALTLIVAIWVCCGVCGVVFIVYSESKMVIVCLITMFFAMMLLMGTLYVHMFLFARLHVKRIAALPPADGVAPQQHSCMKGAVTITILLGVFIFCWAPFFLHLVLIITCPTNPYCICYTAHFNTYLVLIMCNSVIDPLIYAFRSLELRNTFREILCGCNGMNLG
T4 sequence (P33032 whole entry): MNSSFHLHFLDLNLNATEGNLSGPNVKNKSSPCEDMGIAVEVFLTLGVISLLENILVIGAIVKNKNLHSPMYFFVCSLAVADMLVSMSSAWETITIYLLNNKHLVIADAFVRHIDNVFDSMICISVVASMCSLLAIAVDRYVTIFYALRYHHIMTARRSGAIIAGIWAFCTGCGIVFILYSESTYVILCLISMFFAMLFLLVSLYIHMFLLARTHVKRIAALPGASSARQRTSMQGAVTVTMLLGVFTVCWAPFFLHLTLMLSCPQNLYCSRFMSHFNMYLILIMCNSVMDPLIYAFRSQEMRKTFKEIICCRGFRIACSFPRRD
T1 sequence (Q01727 whole entry): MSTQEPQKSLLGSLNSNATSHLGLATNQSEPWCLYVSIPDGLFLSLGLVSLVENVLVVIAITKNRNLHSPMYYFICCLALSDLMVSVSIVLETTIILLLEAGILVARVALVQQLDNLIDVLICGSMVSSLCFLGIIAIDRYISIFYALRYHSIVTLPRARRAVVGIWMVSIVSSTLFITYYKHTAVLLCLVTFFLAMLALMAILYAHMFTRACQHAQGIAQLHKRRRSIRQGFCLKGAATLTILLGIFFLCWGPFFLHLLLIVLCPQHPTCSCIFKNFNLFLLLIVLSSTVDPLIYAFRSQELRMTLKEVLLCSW
Melanocyte-stimulating hormone receptor (Mus musculus), sequence (Q01727 whole entry, looked up): as the sequence (Q01727 whole entry) above
T3 sequence (P32245 whole entry): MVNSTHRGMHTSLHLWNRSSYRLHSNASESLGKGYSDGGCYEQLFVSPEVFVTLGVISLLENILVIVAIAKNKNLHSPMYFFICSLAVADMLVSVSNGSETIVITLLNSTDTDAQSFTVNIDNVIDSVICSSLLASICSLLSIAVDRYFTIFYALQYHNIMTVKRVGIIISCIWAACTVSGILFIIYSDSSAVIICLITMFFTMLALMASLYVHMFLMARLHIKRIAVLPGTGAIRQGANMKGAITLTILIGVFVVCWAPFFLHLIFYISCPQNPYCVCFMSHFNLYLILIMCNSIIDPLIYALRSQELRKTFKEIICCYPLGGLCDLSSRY

One may read the Ki as a measure of affinity in units of concentration, obtained from inhibition or displacement. As for `NCCCN(C/C=C/c1ccccc1)C(=O)Cc1c[nH]c2ccccc12`, the Ki in [1] is 6.4 µM; on Melanocortin receptor 3 [2], 21 µM; at Melanocortin receptor 4 [3] it was 26 µM; at Melanocortin receptor 5 [4] it was “Not Active”.

For the compound `NCCCCCCCCN(C/C=C/c1ccccc1)C(=O)CCc1c[nH]c2ccccc12`, the Ki in [1] was determined as 1.2 µM; at Melanocortin receptor 3 [2], 24 µM; at Melanocortin receptor 4 [3], 17 µM; at Melanocortin receptor 5 [5], 40 µM. The Ratio in experiment [6], in experiment [7] and in experiment [8] was 10 each time.

Consider `NCCCCCN(Cc1ccc2ccccc2c1)C(=O)CCCc1c[nH]c2ccccc12`, for which the Ki in experiment [1] was 5.1 µM; at Melanocortin receptor 3 [2], 20 µM; at Melanocortin receptor 4 [3] it was 12 µM; at Melanocortin receptor 5 [5] it was 34 µM. Also, the outcome (in experiment [9]; at Melanocortin receptor 3 [10]; at Melanocortin receptor 4 [11]; at Melanocortin receptor 5 [12]) was Active.

As to `NCCCCCN(Cc1ccccc1)C(=O)[C@H](N)Cc1ccccn1`, the Ki result (in experiment [13]; on Melanocortin receptor 3 [14]; at Melanocortin receptor 4 [15]; on Melanocortin receptor 5 [4]) was “Not Active” each time.

Regarding `NCCN(C(=O)Cc1ccc2ccccc2c1)C1CCc2ccccc2C1` (stereo unspecified), the Ki in experiment [1] is 1.6 µM; on Melanocortin receptor 3 [2] it was 29 µM; at Melanocortin receptor 4 [3], 27 µM; on Melanocortin receptor 5 [5], 25 µM. The Ratio in experiment [6], in experiment [7] and in experiment [8] was 10 throughout.

As for `NCc1cccc(CN(Cc2ccccc2)C(=O)CCCc2c[nH]c3ccccc23)c1`, the Ki in experiment [1] was determined as 1.9 µM; at Melanocortin receptor 3 [2], 45 µM; at Melanocortin receptor 4 [3] it was 33 µM; at Melanocortin receptor 5 [5], 32 µM. For the same compound, the Ratio in [6], in experiment [7] and in experiment [8] was 10 in each case.

With `NCCCCN(Cc1ccc2ccccc2c1)C(=O)Cc1c[nH]c2ccccc12`, the Ki in experiment [1] is 15 µM; at Melanocortin receptor 3 [2], 63 µM; at Melanocortin receptor 4 [3] it was 111 µM; on Melanocortin receptor 5 [5], 16 µM. The result (in [9]; on Melanocortin receptor 3 [10]; on Melanocortin receptor 4 [11]; on Melanocortin receptor 5 [12]) was Active.

As for `NCCCN(Cc1ccc2ccccc2c1)C(=O)Cc1c[nH]c2ccccc12`, the Ki in [1] was 20 µM; at Melanocortin receptor 3 [2], 63 µM; on Melanocortin receptor 4 [3], 161 µM; on Melanocortin receptor 5 [5], 12 µM. Besides, the result (in [9]; at Melanocortin receptor 3 [10]; at Melanocortin receptor 4 [11]; on Melanocortin receptor 5 [12]) was Active.

With `NCCCN(C(=O)Cc1c[nH]c2ccccc12)C1CCc2ccccc2C1` (stereo unspecified), the Ki in experiment [1] was 2.4 µM; at Melanocortin receptor 3 [2], 37 µM; on Melanocortin receptor 4 [3], 33 µM; on Melanocortin receptor 5 [5], 25 µM. Also, the Ratio in [6], in [7] and in [8] was 10 in each case.

As to `NCCN(Cc1ccc2ccccc2c1)C(=O)Cc1c[nH]c2ccccc12`, the inhibitory constant (Ki) in [1] was found to be 36 µM; at Melanocortin receptor 3 [2] it was 68 µM; at Melanocortin receptor 4 [3], 140 µM; on Melanocortin receptor 5 [5], 18 µM. The result (in experiment [9]; on Melanocortin receptor 3 [10]; on Melanocortin receptor 4 [11]; on Melanocortin receptor 5 [12]) was Active.

On to `NCCCCCN(C/C=C/c1ccccc1)C(=O)CCc1c[nH]c2ccccc12`, for which the Ki in experiment [1] was found to be 3.7 µM; at Melanocortin receptor 3 [2], 27 µM; at Melanocortin receptor 4 [3], 8.1 µM; on Melanocortin receptor 5 [5] it was 8 µM. Moreover, the outcome (in [9]; at Melanocortin receptor 3 [10]; at Melanocortin receptor 4 [11]; on Melanocortin receptor 5 [12]) was Active.
